These results are taken from ChEMBL document CHEMBL1154433, “Synthesis of new substituted azetidinoyl and thiazolidinoyl-1,3,4-thiadiazino (6,5-b) indoles as promising anti-inflammatory agents” (Eur J Med Chem, 2008).

A word on the inhibition in vivo: it is the percentage by which the read-out fell short of the control. In general, inhibition refers to the drop in the measured response relative to a control, in per cent.

Each structure is given as a SMILES string.

Data set [1] has as its system Rattus norvegicus. Briefly: Antiinflammatory activity in albino Charles-Foster rat assessed as inhibition of carrageenan-induced paw oedema at 50 mg/kg, po measured before 1 hr and after 3 hrs of carrageenan challenge relative to control. It is filed as functional. In general terms: In the carrageenan paw model, swelling and tenderness develop within hours.
In data set [2] the test system is Mus musculus. Kind of data set: Analgesic activity in mouse assessed as protection against phenylquinone-induced writhing at 50 mg/kg, po administered 1 hr before phenylquinone challenge measured for 5 mins relative to control. The format is functional.
A short description of data set [3]: Acute toxicity in orally dosed albino mouse after 24 hrs. Conditions: in vivo, po, read-out: ALD50. The format is organism-based, albino Charles-Foster.
Data set [4] has as its target Prostaglandin G/H synthase 1 (Homo sapiens) (UniProt P23219). Kind of data set: Inhibition of COX1. Details: concentration or dose not given beside the values. The note with it: concentration not given here.
Data set [5] has as its target T1, Prostaglandin G/H synthase 2 (Homo sapiens) (UniProt P35354).
T1 sequence (whole entry): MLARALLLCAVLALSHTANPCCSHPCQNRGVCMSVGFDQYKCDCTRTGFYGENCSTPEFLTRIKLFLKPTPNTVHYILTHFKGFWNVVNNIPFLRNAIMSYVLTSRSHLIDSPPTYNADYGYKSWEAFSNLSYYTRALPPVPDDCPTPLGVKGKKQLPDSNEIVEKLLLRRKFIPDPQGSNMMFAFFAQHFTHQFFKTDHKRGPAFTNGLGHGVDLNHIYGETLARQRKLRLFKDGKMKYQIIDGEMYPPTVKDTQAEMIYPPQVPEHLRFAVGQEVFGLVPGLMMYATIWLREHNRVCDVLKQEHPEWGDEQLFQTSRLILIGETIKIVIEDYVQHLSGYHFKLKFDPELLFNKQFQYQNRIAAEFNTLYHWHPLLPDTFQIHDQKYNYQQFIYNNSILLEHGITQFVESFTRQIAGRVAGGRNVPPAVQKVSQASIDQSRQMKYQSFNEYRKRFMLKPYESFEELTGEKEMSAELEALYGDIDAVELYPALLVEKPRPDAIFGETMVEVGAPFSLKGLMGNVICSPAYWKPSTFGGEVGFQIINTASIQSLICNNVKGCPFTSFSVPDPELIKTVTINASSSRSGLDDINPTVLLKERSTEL
Kind of data set: Inhibition of COX2. Details: concentration or dose not given beside the values. The note with it: concentration not given here.

Data set [6] has as its system Rattus norvegicus. Briefly: Antiinflammatory activity in albino Charles-Foster rat assessed as inhibition of carrageenan-induced paw oedema at 25 mg/kg, po measured before 1 hr and after 3 hrs of carrageenan challenge relative to control. It is filed as functional.
Data set [7] relates to Rattus norvegicus. Kind of data set: Antiinflammatory activity in albino Charles-Foster rat assessed as inhibition of carrageenan-induced paw oedema at 100 mg/kg, po measured before 1 hr and after 3 hrs of carrageenan challenge relative to control. The format is functional.
Data set [8] has as its system Mus musculus. Kind of data set: Analgesic activity in mouse assessed as protection against phenylquinone-induced writhing at 25 mg/kg, po administered 1 hr before phenylquinone challenge measured for 5 mins relative to control. It is filed as functional. A general note: Writhing tests count abdominal constrictions after an irritant is injected.
Data set [9] concerns Mus musculus. Briefly: Analgesic activity in mouse assessed as protection against phenylquinone-induced writhing at 100 mg/kg, po administered 1 hr before phenylquinone challenge measured for 5 mins relative to control. It is filed as functional.
A short description of data set [10]: Toxicity in 24 hrs fasted Albino rat assessed as ulcerogenic activity after 8 hrs. The format is organism-based. Conditions: in vivo, read-out: UD50.

Sequence of Prostaglandin G/H synthase 1 (Homo sapiens) (P23219 whole entry): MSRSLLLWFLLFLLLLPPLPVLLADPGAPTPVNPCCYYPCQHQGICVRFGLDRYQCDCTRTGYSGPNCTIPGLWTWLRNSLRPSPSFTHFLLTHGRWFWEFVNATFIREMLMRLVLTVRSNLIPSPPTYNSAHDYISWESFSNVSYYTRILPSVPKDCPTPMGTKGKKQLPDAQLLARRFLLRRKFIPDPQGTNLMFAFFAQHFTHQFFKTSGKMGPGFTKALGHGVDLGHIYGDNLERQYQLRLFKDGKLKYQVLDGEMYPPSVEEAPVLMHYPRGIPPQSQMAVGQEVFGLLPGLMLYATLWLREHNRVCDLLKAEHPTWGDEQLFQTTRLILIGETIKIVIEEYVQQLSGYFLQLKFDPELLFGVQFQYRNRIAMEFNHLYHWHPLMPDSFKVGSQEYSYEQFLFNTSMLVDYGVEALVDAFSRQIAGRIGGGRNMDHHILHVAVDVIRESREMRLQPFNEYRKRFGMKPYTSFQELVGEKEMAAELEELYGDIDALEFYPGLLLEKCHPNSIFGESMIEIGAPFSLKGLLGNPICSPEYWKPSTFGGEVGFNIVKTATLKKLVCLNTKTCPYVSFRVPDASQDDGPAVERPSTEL

For `Cc1ccc(/C=N/c2nnc(CNc3nnc4c5ccccc5nc-4s3)s2)cc1`, the inhibition in vivo at 50 mg/kg in [1] is 20.7%. The Activity in [2] was 12.67%. Also, the LD50 at 24 h in data set [3] is more than 800 mg/kg. The inhibition turned out to be 23.1% in data set [4] and 25.4% in data set [5].
Turning to `CCCCC1C(=O)N(c2ccccc2)N(c2ccccc2)C1=O` [PHENYLBUTAZONE], the inhibition in vivo at 50 mg/kg in [1] came out at 36.8%. For the same molecule, the inhibition in vivo at 25 mg/kg in [6] was found to be 26.8%. In addition, in data set [7], the inhibition in vivo at 100 mg/kg is 64.7%. The results for the Activity in [2], in [8] and in [9] were 32.5%, 14.26% and 32.5%, respectively. Further, the TD50 at 8 h in [10] amounted to 54.6 mg/kg. The LD50 at 24 h in data set [3] is more than 800 mg/kg.
For `Clc1ccc(/C=N/c2nnc(CNc3nnc4c5ccccc5nc-4s3)s2)cc1`, the inhibition in vivo at 50 mg/kg in [1] amounted to 26%. In addition, the Activity in data set [2] is on record as 16.5%. In data set [3], the LD50 at 24 h is more than 800 mg/kg. Further, the values for the inhibition in data set [4] and in data set [5] were 27.4% and 33.7%, respectively.
For `C(=N\c1nnc(CNc2nnc3c4ccccc4nc-3s2)s1)/c1ccccc1`, the inhibition in vivo at 50 mg/kg in [1] is 14.8%. The Activity in data set [2] is 12.16%. The LD50 at 24 h in data set [3] was more than 800 mg/kg. The results for the inhibition in [4] and in data set [5] were 22.4% and 24.2%, respectively.
For `O=C1C(Cl)C(c2ccc(Cl)cc2)N1c1nnc(CNc2nnc3c4ccccc4nc-3s2)s1` (stereo not drawn), in that order: 34.7%, 25.01%, more than 800 mg/kg, 40.9% and 72.1%.
With `CN(C)c1ccc(C2C(Cl)C(=O)N2c2nnc(CNc3nnc4c5ccccc5nc-4s3)s2)cc1` (stereo not drawn), the inhibition in vivo at 50 mg/kg in data set [1] is 33.6%. In addition, the Activity in data set [2] turned out to be 22.67%. Moreover, the LD50 at 24 h in data set [3] was more than 800 mg/kg. Further, the inhibition was 37.2% in data set [4] and 65.8% in [5].
For `CN(C)c1ccc(C2SCC(=O)N2c2nnc(CNc3nnc4c5ccccc5nc-4s3)s2)cc1` (stereo not drawn), in that order: 28.7%, 18%, more than 800 mg/kg, 32.2% and 38.1%.
As for `COc1ccc(C2SCC(=O)N2c2nnc(CNc3nnc4c5ccccc5nc-4s3)s2)cc1` (stereo not drawn), the inhibition in vivo at 50 mg/kg in data set [1] is 28.1%. For the same molecule, the Activity in data set [2] came out at 10.76%. Besides, the LD50 at 24 h in data set [3] was more than 800 mg/kg. For the same molecule, the figures for the inhibition in data set [4] and in data set [5] were 34.3% and 40.1%, respectively.
Consider `O=C1CSC(c2ccc(Cl)cc2)N1c1nnc(CNc2nnc3c4ccccc4nc-3s2)s1` (stereo not drawn), for which the inhibition in vivo at 50 mg/kg in data set [1] was 18.2%. The Activity in data set [2] came out at 8.78%. Besides, the LD50 at 24 h in [3] is more than 800 mg/kg. In addition, the figures for the inhibition in [4] and in data set [5] were 36.5% and 44.1%, respectively.
Take `Oc1ccc(/C=N/c2nnc(CNc3nnc4c5ccccc5nc-4s3)s2)cc1`: the inhibition in vivo at 50 mg/kg in data set [1] came out at 24.3%. Also, the Activity in data set [2] is listed as 16.87%. Also, in data set [3], the LD50 at 24 h was more than 800 mg/kg. Also, the values for the inhibition in data set [4] and in data set [5] were 25.1% and 31.5%, respectively.
Regarding `O=C1C(Cl)C(c2ccc(O)cc2)N1c1nnc(CNc2nnc3c4ccccc4nc-3s2)s1` (stereo not drawn), the inhibition in vivo at 50 mg/kg in [1] worked out at 32.7%. Further, in data set [2], the Activity is given as 19.95%. Besides, the LD50 at 24 h in data set [3] is more than 800 mg/kg. Moreover, the inhibition in [4] came out at 39.3%; in [5], 71.1%.
As to `COc1ccc(C2C(Cl)C(=O)N2c2nnc(CNc3nnc4c5ccccc5nc-4s3)s2)cc1` (stereo not drawn), the inhibition in vivo at 50 mg/kg in [1] came to 31.6%. In addition, the Activity in data set [2] was found to be 21.27%. For the same molecule, the LD50 at 24 h in data set [3] was more than 800 mg/kg. Besides, the figures for the inhibition in data set [4] and in [5] were 39.5% and 66.3%, respectively.
With `COc1ccccc1C1SCC(=O)N1c1nnc(CNc2nnc3c4ccccc4nc-3s2)s1` (stereo not drawn), the inhibition in vivo at 50 mg/kg in data set [1] amounted to 31.3%. Further, the Activity in data set [2] was found to be 22.56%. Besides, the LD50 at 24 h in data set [3] was more than 800 mg/kg. The inhibition amounted to 33.3% in [4] and 38.5% in [5].
As for `O=C1C(Cl)C(c2ccccc2)N1c1nnc(CNc2nnc3c4ccccc4nc-3s2)s1` (stereo not drawn), the inhibition in vivo at 50 mg/kg in [1] is 30.6%. Also, the Activity in data set [2] was determined as 21%. For the same molecule, the LD50 at 24 h in data set [3] is more than 800 mg/kg. In addition, the inhibition turned out to be 37% in data set [4] and 74.6% in data set [5].
For `Cc1ccc(C2C(Cl)C(=O)N2c2nnc(CNc3nnc4c5ccccc5nc-4s3)s2)cc1` (stereo not drawn), in data set [1], the inhibition in vivo at 50 mg/kg worked out at 32.2%. Besides, in data set [2], the Activity stood at 18.76%. For the same molecule, in data set [3], the LD50 at 24 h is more than 800 mg/kg. Besides, the inhibition in [4] worked out at 38.4%; in [5], 63.6%.
With `O=C1C(Cl)C(c2ccccc2Cl)N1c1nnc(CNc2nnc3c4ccccc4nc-3s2)s1` (stereo not drawn), the inhibition in vivo at 50 mg/kg in data set [1] amounted to 28.8%. Also, the inhibition in vivo at 25 mg/kg in data set [6] turned out to be 28.8%. For the same molecule, the inhibition in vivo at 100 mg/kg in data set [7] turned out to be 66.8%. The Activity in [2] is on record as 38%; in [8] it was 19%; in [9] it was 58%. For the same molecule, the TD50 at 8 h in data set [10] was found to be 133 mg/kg. Further, in data set [3], the LD50 at 24 h was more than 800 mg/kg. The inhibition in [4] was 69.1%; in [5] it was 93.3%.
In the case of `COc1ccccc1C1C(Cl)C(=O)N1c1nnc(CNc2nnc3c4ccccc4nc-3s2)s1` (stereo not drawn), in data set [1], the inhibition in vivo at 50 mg/kg amounted to 36.2%. Besides, the Activity in data set [2] was 35%. Further, the LD50 at 24 h in data set [3] is more than 800 mg/kg. Besides, the results for the inhibition in data set [4] and in data set [5] were 38.7% and 64.3%, respectively.
Consider `Cc1ccc(C2SCC(=O)N2c2nnc(CNc3nnc4c5ccccc5nc-4s3)s2)cc1` (stereo not drawn), for which, in data set [1], the inhibition in vivo at 50 mg/kg was 37%. Moreover, the Activity in [2] stood at 22.08%. For the same molecule, the LD50 at 24 h in data set [3] was more than 800 mg/kg. The inhibition in data set [4] turned out to be 33.4%; in [5], 36.3%.
For `O=C1CSC(c2ccc(O)cc2)N1c1nnc(CNc2nnc3c4ccccc4nc-3s2)s1` (stereo not drawn), in that order: 25.3%, 9.95%, more than 800 mg/kg, 34.4% and 44%.
For `COc1ccccc1/C=N/c1nnc(CNc2nnc3c4ccccc4nc-3s2)s1`, in that order: 23.2%, 22.23%, more than 800 mg/kg, 24.1% and 26.7%.
For the molecule `Clc1ccccc1/C=N/c1nnc(CNc2nnc3c4ccccc4nc-3s2)s1`, the inhibition in vivo at 50 mg/kg in data set [1] worked out at 26%. In data set [2], the Activity worked out at 18.66%. Also, the LD50 at 24 h in data set [3] is more than 800 mg/kg. Further, the values for the inhibition in data set [4] and in [5] were 28.7% and 34.4%, respectively.
Consider `O=C1CSC(c2ccccc2)N1c1nnc(CNc2nnc3c4ccccc4nc-3s2)s1` (stereo not drawn), for which the inhibition in vivo at 50 mg/kg in data set [1] was 19.8%. In data set [2], the Activity is given as 9.7%. Also, the LD50 at 24 h in data set [3] is more than 800 mg/kg. Besides, the inhibition was 31.9% in data set [4] and 36.7% in [5].
`CN(C)c1ccc(/C=N/c2nnc(CNc3nnc4c5ccccc5nc-4s3)s2)cc1`: in data set [1], the inhibition in vivo at 50 mg/kg turned out to be 21.4%. The Activity in data set [2] came out at 14.28%. Further, the LD50 at 24 h in [3] is more than 800 mg/kg. Moreover, the inhibition came out at 24.2% in data set [4] and 26.4% in data set [5].
Consider `COc1ccc(/C=N/c2nnc(CNc3nnc4c5ccccc5nc-4s3)s2)cc1`, for which the inhibition in vivo at 50 mg/kg in [1] turned out to be 22.4%. Also, the Activity in data set [2] worked out at 15.67%. Moreover, the LD50 at 24 h in data set [3] is more than 800 mg/kg. Also, the results for the inhibition in data set [4] and in data set [5] were 26.2% and 29.4%, respectively.
